Test results taken from US20240327415A1, “Multicomponent Complexes, Including Salts, Crystalline Forms, and Hydrates and Solvates of ENT1 Inhibitors” (iTeos Belgium SA, priority 2023, published 2024).
Where a name gives a salt, the structure may show the parent alone.

Experiments:
Format in all cases: physicochemical
[1] = Variable Humidity X-Ray Powder Diffraction (VH-XRPD); design: key to VH-XRPD XRPD Results: A = amorphous; 1 = Form 1 Compound 1 hydrogen chloride; PC = poorly crystalline
Experimental: In the examples below, VH-XRPD analysis was carried out on a Philips X'Pert Pro Multipurpose diffractometer equipped with a humidity chamber. The samples were scanned between 4 and 36° 2θ using Cu K radiation (α1λ=1.54060 Å; α2=1.54443 Å; β=1.39225 Å; α1: α2 ratio=0.5; most, if not all, B radiation is removed from the beam using an X-ray mirror) running in Bragg-Brentano geometry (step size 0.008° 2θ) using 40 kV/40 mA generator settings. Measurements were carried out from 2-90% RH, with a final measurement taken at 40% RH.
VH-XRPD analysis was carried out on a Philips X'Pert Pro Multipurpose diffractometer equipped with a humidity chamber. The samples were scanned between 4 and 36° 2θ using Cu K radiation (α1 λ=1.54060 Å; α2=1.54443 Å; β=1.39225 Å; α1:α2 ratio=0.5; most, if not all, β radiation is removed from the beam using an X-ray mirror) running in Bragg-Brentano geometry (step size 0.008° 2θ) using 40 kV/40 mA generator settings. Measurements were carried out from 6-90% relative humidity (RH), with a final measurement taken at 40% RH.

[2] = Dynamic Vapor Sorption (DVS)
Experimental: (§1) METHOD A: In Example 11, approximately 5-15 mg of sample was placed into a mesh vapor sorption balance pan and loaded into either a DVS Intrinsic or DVS Advantage dynamic vapor sorption balance by Surface Measurement Systems. The sample was subjected to a ramping profile from 40-90% relative humidity (RH) at 10% increments, maintaining the sample at each step until a stable weight had been achieved (dm/dt 0.004%, minimum step length 30 minutes, maximum step length 500 minutes) at 25° C. After completion of the sorption cycle, the sample was dried using the same procedure to 0% RH and then a second sorption cycle back to 40% RH was carried out. Two cycles were performed. The weight change during the sorption/desorption cycles were plotted, allowing the hygroscopic nature of the sample to be determined. XRPD analysis was then carried out on the residual solid.
as §1, with “B:” for “A:”, “Examples 2A, 3, 14, and 17,” for “Example 11,”, “10-20” for “5-15”, “determined.” for “determined. XRPD analysis was then carried out on the residual solid.”
as §1, with “Approximately 10-20” for “METHOD A: In Example 11, approximately 5-15”, “RH” for “relative humidity (RH)”, “min,” for “minutes,”, “min)” for “minutes)”, “determined.” for “determined. XRPD analysis was then carried out on the residual solid.”

[3] = TG/DSC and DSC thermal analysis; settings: listed as Crystalline Form 8 Compound 1 mono(hydrogen sulfate)
Experimental: In the examples below, to measure TGA/DSC, 2-10 mg of material was added into a pre-tared open aluminum pan and loaded into a TA Instruments Discovery SDT 650 Auto—Simultaneous DSC and held at room temperature. The sample was then heated at a rate of 10° C./min from 30° C. to 400° C. during which time the change in sample weight was recorded along with the heat flow response (DSC). Nitrogen was used as the sample purge gas, at a flow rate of 200 cm^3/min.
(§2) METHOD A: In Example 3, 1-5 mg of material was weighed into an aluminum DSC pan and sealed non-hermetically with a pierced aluminum lid. The sample pan was then loaded into a TA DSC2500 and held at 20° C. Once a stable heat-flow response was obtained, the sample and reference were heated to an upper temperature of 200° C. at a scan rate of 10° C./min and the resulting heat flow response monitored. The sample was held at the upper temperature for 3 minutes, before it was cooled at 10° C./min to 20° C., reheated to the upper temperature at 10° C./min, and then cooled again to 20° C. at the same rate. Nitrogen was used as the purge gas, at a flow rate of 50 cm^3/min.
as §2, with “B:” for “A:”, “Examples 2A, 14, and 17,” for “Example 3,”, “−80° C. and then” for “20° C.,”, “C./min.” for “C./min, and then cooled again to 20° C. at the same rate.”
METHOD C: In Example 5, 1-5 mg of a sample were weighed into an aluminum DSC pan and sealed non-hermetically with an aluminum lid. The sample pan was then loaded into a TA Instruments Discovery DSC 2500 differential scanning calorimeter equipped with a RC90 cooler. The sample and reference were heated to 190° C. at a scan rate of 10° C./min and the resulting heat flow response monitored. The sample was re-cooled to −80° C. and then reheated again to 190° C. all at 10° C./min. Nitrogen was used as the purge gas, at a flow rate of 50 cm^3/min.
2-10 mg of material was added into a pre-tared open aluminum pan and loaded into a TA Instruments Discovery SDT 650 Auto-Simultaneous DSC and held at room temperature. The sample was then heated at a rate of 10° C./min from 30° C. to 400° C. during which time the change in sample weight was recorded along with the heat flow response (DSC). Nitrogen was used as the sample purge gas, at a flow rate of 200 cm^3/min.
as §2, with “1-5” for “METHOD A: In Example 3, 1-5”, “min,” for “minutes,”

[4] = salt screen, XRPD of damp, dried and 40° C./75% RH stored samples (Salt Preparation Methods 1 and 2); design: key: A: amorphous; Crystalline Form 10 mono(hydrogen sulfate); settings: Sulfuric Acid, 1 equiv.
Experimental: Salt Preparation Method 1: Approximately 25 mg of Compound 1 (free base) was weighed out into 1.5 mL screw-cap vials and a stirrer bar was added. For solid counterions, the appropriate amount of acid (1.0 or 2.0 equiv.) was weighed into separate 1.5 mL screw-cap vials. 100 μL of the appropriate solvent system was added to both the Compound 1 and the solid counterions. Stock solutions of liquid counterions were prepared, such that 100 μL contained 1.0 or 2.0 equiv. of acid. See counterion and solvent lists in Table 60 and Table 61 respectively.
The samples were stirred at 40° C. for 5-10 min and then the acid solutions were added to Compound 1, rinsing out the transfer vial with a further 50 μL of solvent. […] Experiments were temperature cycled between 40° C. and 5° C. (1 h hold; 0.1° C./min ramp/cool) for ca. 24-68 h. Anti-solvent addition (ASA) was carried out to slurries at 5° C. then experiments were heated to 30° C. over 1 h. ASA was carried out at 30° C. or 40° C. where clear solutions or gums were observed.
Temperature cycling was then continued for ca. 16-69 h, followed by further ASA and temperature cycling if required. Material was isolated at 5° C. and analyzed damp by XRPD. All isolated material was dried under vacuum at ca. 40° C. for ca. 17-91 h then re-analyzed by XRPD. The XRPD plate was stored at 40° C./75% RH for 24-48 h and then samples re-analyzed. Solutions were stored uncapped at ambient temperature to evaporate. Any residual solids were analyzed by XRPD.
Salt Preparation Method 2: The general procedure adopted in preparing the potential salts is outlined below. A known mass of Compound 1 (free base) and a known volume of the appropriate solvent system were added to 20 mL scintillation vials. The required mol. equiv. of the appropriate counterions were added to the vials as solutions or slurries in the corresponding solvent system.
The experiments were stirred at 40° C. for ca. 1 h, and then temperature cycled between 40° C. and 5° C. with 0.1° C./min ramp and 1 h hold between each step. Anti-solvent additions and subsequent slurrying at 5° C. were employed in order to facilitate crystallization. […] The damp and dried solids were subsampled and analyzed by XRPD. Where applicable, the dried solids were stored at 40° C./75% RH for 24-48 h in order to improve the crystallinity and/or facilitate solid form conversion to the desired form.

COc1cc(C(=O)O[C@@H]2CCCOc3cc(cc(OC)c3OC)C(=O)NCCCN3CCCN(CC2)CC3)cc(OC)c1OC.Cl.Cl
1: VH-XRPD XRPD Results ([1]; Desorption (1st), 7% RH, hold 60 min) | VH-XRPD XRPD Results ([1]; Desorption (1st), 10% RH, hold 60 min) | VH-XRPD XRPD Results ([1]; Desorption (1st), 20% RH, hold 960 min) | VH-XRPD XRPD Results ([1]; Desorption (1st), 40% RH, hold 60 min) | VH-XRPD XRPD Results ([1]; Desorption (2nd), 40% RH, hold 60 min) | VH-XRPD XRPD Results ([1]; Desorption (2nd), 60% RH, hold 60 min) | VH-XRPD XRPD Results ([1]; Sorption, 10% RH, hold 60 min) | VH-XRPD XRPD Results ([1]; Sorption, 20% RH, hold 60 min) | VH-XRPD XRPD Results ([1]; Sorption, 40% RH, hold 60 min) | VH-XRPD XRPD Results ([1]; Sorption, 60% RH, hold 60 min) | VH-XRPD XRPD Results ([1]; Sorption, 70% RH, hold 60 min) | VH-XRPD XRPD Results ([1]; Sorption, 80% RH, hold 60 min)
ca. 1.3%: hysteresis between the sorption and desorption cycles (DVS) ([2]; 25° C. (fumarate: at 20% RH))
18%: moisture uptake (DVS) ([2]; between 0-80% RH, second sorption cycle, 25° C.)
gum-like material: post-DVS sample (XRPD / appearance) ([2]; DVS at 25° C.)
7-80 % RH: relative humidity range in which the form is retained (VH-XRPD) [1]
9%: moisture uptake (DVS) ([2]; between 80-90% RH, 25° C.)
moderate-high hygroscopicity: hygroscopicity ([2]; 25° C.)
ca. 5%: moisture uptake (DVS) ([2]; between 40-80% RH, first sorption cycle, 25° C.)

COc1cc(C(=O)O[C@@H]2CCCOc3cc(cc(OC)c3OC)C(=O)NCCCN3CCCN(CC2)CC3)cc(OC)c1OC.O=S(=O)(O)O
144 °C: TGA/DSC thermal event, onset ([3]; value before the brackets)
158 °C: TGA/DSC thermal event, peak ([3]; value in brackets)
7.2% mass loss: TGA/DSC mass loss [3]

COc1cc(C(=O)O[C@@H]2CCCOc3cc(cc(OC)c3OC)C(=O)NCCCN3CCCN(CC2)CC3)cc(OC)c1OC [Compound 1 mono(hydrogen sulfate)]
10: XRPD Analysis 40° C. 75% RH ([4]; IPA:H2O (75:25% v/v), AS tBME) | XRPD Analysis 40° C. 75% RH ([4]; MEK, AS Heptane)
A: XRPD Analysis 40° C. 75% RH ([4]; Acetonitrile, AS tBME) | XRPD Analysis Damp ([4]; Acetonitrile, AS tBME) | XRPD Analysis Dry ([4]; Acetonitrile, AS tBME) | XRPD Analysis 40° C. 75% RH ([4]; Ethanol, AS Heptane) | XRPD Analysis Damp ([4]; Ethanol, AS Heptane) | XRPD Analysis Dry ([4]; Ethanol, AS Heptane) | XRPD Analysis 40° C. 75% RH ([4]; Ethyl acetate, AS Heptane) | XRPD Analysis Damp ([4]; Ethyl acetate, AS Heptane) | XRPD Analysis Dry ([4]; Ethyl acetate, AS Heptane) | XRPD Analysis Damp ([4]; IPA:H2O (75:25% v/v), AS tBME) | XRPD Analysis Dry ([4]; IPA:H2O (75:25% v/v), AS tBME) | XRPD Analysis Damp ([4]; MEK, AS Heptane) | XRPD Analysis Dry ([4]; MEK, AS Heptane) | XRPD Analysis 40° C. 75% RH ([4]; THF, AS Heptane) | XRPD Analysis Damp ([4]; THF, AS Heptane) | XRPD Analysis Dry ([4]; THF, AS Heptane)
